Entries after “also recorded” stand apart in the source; their conditions may differ.
How the values were obtained:
[1] = system: L-type calcium current; experiment: L-type calcium current in vascular smooth muscle cells (VSMC); type: cell-based; details: vascular smooth muscle cells (FIG. 6)
[2] = system: T-type calcium channel; experiment: Whole-cell patch-clamp, T-type calcium current in N1E-115 cells; type: cell-based, Mouse; details: for effect on T-type calcium current: hypericin 0.1 to 10 uM (FIG. 3)
Procedure: (§1) Mouse neuroblastoma cells (N1E115) were cultured in Dulbecco's modified Eagle's medium (GIBCO) containing 10% fetal bovine serum at 37° C. in a humidified atmosphere of 5% CO2 in air. The medium was changed every 3–4 days. After mechanical agitation, 3×10^4 cells were replanted in 35 mm tissue culture dishes containing 4 ml of bath solution. After cell attachment, the dish was mounted on the stage of an inverted phase-contrast microscope (Nikon) for Ca^2+ channel current recording. These cells expressed predominately T channel currents. In experiments where L channels were specifically sought, the cells were grown and maintained at confluence for 3–4 weeks under the same culture conditions with the addition of 2% (vol/vol) dimethyl sulfoxide. Three to five days before use, the cells were replanted with the same medium. These cells expressed predominately L channel currents. A small number of these cells also expressed T channel currents.
The whole-cell version of the patch-clamp technique was used. The pipettes had resistance of 2–15 M. Membrane current recordings were made with an Axopatch-1C (Axon Instruments) patch-clamp amplifier. All signals were filtered at 1 kHz and stored in the computer. Since the peak currents measured with 20 mM Ba^2+ as the charge carrier were usually small (about 200 pA), the series resistance compensation was not usually employed. If the capacitive transient overlapped with the onset of the inward current, or if the spatial voltage control was inadequate (i.e., NIE-115 cells with long neural outgrowths), the experimental data were rejected. Unless otherwise specified the current-voltage plots were constructed by using the peak values (corrected for leakage) from the original records for both T and L channel currents. The holding membrane potential was fixed at −80 mV when the T channels were under investigation or at […] when the L channels were studied. […] For every single-cell recording, stable readings were first obtained for 5 min; the drug was then added to the bath solution. […]

[3] = system: L-type calcium channels; experiment: Whole-cell patch-clamp, L-type calcium current in cultured N1E-115 neuroblastoma cells; type: cell-based, Mouse; details: cultured N1E-115 cells; hypericin 0.1, 1 and 10 uM (FIG. 1)
Procedure: as §1
The whole-cell version of the patch-clamp technique was used. […] Since the peak currents measured with 20 mM Ba^2+ as the charge carrier were usually small (about 200 pA), the series resistance compensation was not usually employed. […] For every single-cell recording, stable readings were first obtained for 5 min; the drug was then added to the bath solution. […]

[4] = system: L-type calcium current; experiment: L-type calcium current in ventricular cells from baby rats; type: cell-based; details: ventricular cells from baby rats (FIG. 7)

In the case of hypericin, the “effect on L-type calcium current” value [1] is reported as “did not affect”, the “inhibition on T-type calcium current” value ([2]; 0.15 ug/ml of pure hypericin (FIG. 3)) is reported as “less than 10%” and the “effect on T-type calcium current” value [2] is reported as “inhibited T-type calcium currents in a dose-dependent manner”. The “effect on T-type calcium current” value ([2]; listed as Hypericin) was “dose-dependent inhibitory effect”, the “effect on L-type calcium current activity” value [3] was “slight but not significant increase; also recorded: does not significantly affect” and the “effect on L-type calcium current” value [4] was “did not affect”.
